Target: T1, Bcl-2 protein (Recombinant Human Bcl-2 Protein) (Homo sapiens, UniProt P10415)
T1 construct: purchased Novus NBP2-34889
Assay: Binding evaluation of mixture library compounds to Bcl-2 using AS-MS (affinity selection mass spectrometry)
Conditions: for ASMS ratio (%) n = 1: replicate n = 1; for ASMS ratio (%) n = 1 / ASMS ratio (%) n = 2: ASMS Ratio(%)=(A−C)/B×100; for ASMS ratio (%) n = 2: replicate n = 2
Procedure, shortened: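 ASMS Ratio (%) was calculated as (A−C)/B×100, where A is the protein sample after SEC, B the protein-free sample without SEC and C the protein-free sample after SEC. Each compound was at […] in a 1200-member pool with 20 μM Bcl-2, incubated 1 h at 23° C.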

[1] = AS-MS, mixture of 1200 compounds, Bcl-2
[2] = AS-MS on the mixture of 1200 library compounds

T1 sequence (P10415 whole entry): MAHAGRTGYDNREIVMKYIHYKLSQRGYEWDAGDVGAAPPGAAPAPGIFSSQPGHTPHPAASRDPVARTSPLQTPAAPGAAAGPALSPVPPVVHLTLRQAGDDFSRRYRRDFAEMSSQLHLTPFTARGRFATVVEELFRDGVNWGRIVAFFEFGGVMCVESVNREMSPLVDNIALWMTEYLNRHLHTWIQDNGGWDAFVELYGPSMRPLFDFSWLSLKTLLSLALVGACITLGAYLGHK

Compound: CCOc1cncc(-c2cc(C(=O)N3CCN(c4ccc(C(=O)NS(=O)(=O)CC56CC7CC(CC(C7)C5)C6)nn4)CC3)cc(C(C)(C)C)c2)c1 [B2A016-01, N-(1-Adamantylmethylsulfonyl)-6-[4-[3-tert-butyl-5-(5-ethoxypyridin-3-yl)benzoyl]piperazin-1-yl]pyridazine-3-carboxamide]
- ASMS ratio (%) n = 1 (AS-MS, mixture library, Bcl-2): 0.0%
- ASMS ratio (%) n = 2 (AS-MS, mixture library, Bcl-2): 2.5%

Compound: CCOc1cncc(-c2ccc(CN3CCN(c4ccc(C(=O)NS(C)(=O)=O)cc4)CC3)c(CC)c2)c1 [B2I050-01, 4-[4-[[4-(5-Ethoxypyridin-3-yl)-2-ethylphenyl]methyl]piperazin-1-yl]-N-methylsulfonylbenzamide]
- ASMS ratio (%) (n = 1): 0.0%
- ASMS ratio (%) (n = 2): −1.5%

Compound: CCOc1cccc(-c2ccc(CN3CCN(c4ccc(C(=O)NS(=O)(=O)c5ccc(NCCSc6ccccc6)c([N+](=O)[O-])c5)nn4)CC3)c3ccccc23)c1 [B2Q091-01, 6-[4-[[4-(3-Ethoxyphenyl)naphthalen-1-yl]methyl]piperazin-1-yl]-N-[3-nitro-4-(2-phenylsulfanylethylamino)phenyl]sulfonylpyridazine-3-carboxamide]
- ASMS ratio (%) n = 1 (AS-MS, mixture library, Bcl-2): 17.2%
- ASMS ratio (%) n = 2 (AS-MS, mixture library, Bcl-2): −5.0%

Compound: CCOc1cncc(-c2cnn(-c3cc(C(=O)N4CCN(c5ccc(C(=O)NCC67CC8CC(CC(C8)C6)C7)nn5)CC4)cc(C(F)(F)F)c3)c2)c1 [B1A022-01, N-(1-Adamantylmethyl)-6-[4-[3-[4-(5-ethoxypyridin-3-yl)pyrazol-1-yl]-5-(trifluoromethyl)benzoyl]piperazin-1-yl]pyridazine-3-carboxamide]
- ASMS ratio (%) n = 1 [1]: 8.0%
- ASMS ratio (%) n = 2 [1]: 7.7%

Compound: CCOc1cncc(-c2ccc(C(=O)N3CCN(c4ccc(C(=O)NS(=O)(=O)CCC(F)(F)F)cc4)CC3)cc2C)c1 [B2N026-01, 4-[4-[4-(5-Ethoxypyridin-3-yl)-3-methylbenzoyl]piperazin-1-yl]-N-(3,3,3-trifluoropropylsulfonyl)benzamide]
- ASMS ratio (%) (n = 1): −1.5%
- ASMS ratio (%) (n = 2): −0.7%

Compound: CCOc1cncc(-c2ccc(C(=O)N3CCN(c4ccc(C(=O)Nc5ccc(OC)cc5)nn4)CC3)cc2F)c1 [B1O006-01, 6-[4-[4-(5-Ethoxypyridin-3-yl)-3-fluorobenzoyl]piperazin-1-yl]-N-(4-methoxyphenyl)pyridazine-3-carboxamide]
- ASMS ratio (%) n = 1 [2]: 4.7%
- ASMS ratio (%) n = 2 [2]: 0.8%

Compound: CCOc1cccc(-c2ccc(CN3CCN(c4ccc(C(=O)N(C)CC56CC7CC(CC(C7)C5)C6)cc4)CC3)c(OC)c2)c1 [B3A053-01, N-(1-Adamantylmethyl)-4-[4-[[4-(3-ethoxyphenyl)-2-methoxyphenyl]methyl]piperazin-1-yl]-N-methylbenzamide]
- ASMS ratio (%) n = 1 [2]: 12.5%
- ASMS ratio (%) n = 2 [2]: 9.9%

Compound: CCOc1cccc(-c2cc(OC)c(CN3CCN(c4ccc(C(=O)NS(=O)(=O)CC56CC7CC(CC(C7)C5)C6)nn4)CC3)c(OC)c2)c1 [B2A085-01, N-(1-Adamantylmethylsulfonyl)-6-[4-[[4-(3-ethoxyphenyl)-2,6-dimethoxyphenyl]methyl]piperazin-1-yl]pyridazine-3-carboxamide]
- ASMS ratio (%) n = 1 (AS-MS, mixture library, Bcl-2): 0.0%
- ASMS ratio (%) n = 2 (AS-MS, mixture library, Bcl-2): 0.0%

Compound: CCOc1cccc(-c2ccc(CN3CCN(c4ccc(C(=O)N(CC)CC)cc4)CC3)c(CC)c2)c1 [B4J049-01, 4-[4-[[4-(3-Ethoxyphenyl)-2-ethylphenyl]methyl]piperazin-1-yl]-N,N-diethylbenzamide]
- ASMS ratio (%) n = 1 [2]: 7.1%
- ASMS ratio (%) n = 2 [2]: −1.4%

Compound: CCOc1cccc(-c2cc(CN3CCN(c4ccc(C(=O)NS(=O)(=O)c5ccc(NCCSc6ccccc6)c([N+](=O)[O-])c5)cc4)CC3)cc(OC(F)(F)F)c2)c1 [B2Q063-01, 4-[4-[[3-(3-Ethoxyphenyl)-5-(trifluoromethoxy)phenyl]methyl]piperazin-1-yl]-N-[3-nitro-4-(2-phenylsulfanylethylamino)phenyl]sulfonylbenzamide]
- ASMS ratio (%) n = 1 (AS-MS, mixture library, Bcl-2): 13.3%
- ASMS ratio (%) n = 2 (AS-MS, mixture library, Bcl-2): −25.5%

Compound: CCOc1cccc(-c2cc(CN3CCN(c4ccc(C(=O)NS(=O)(=O)C(C)(C)C)cc4)CC3)cc(OC(F)(F)F)c2)c1 [B2L063-01, N-tert-Butylsulfonyl-4-[4-[[3-(3-ethoxyphenyl)-5-(trifluoromethoxy)phenyl]methyl]piperazin-1-yl]benzamide]
- ASMS ratio (%) (n = 1): 0.0%
- ASMS ratio (%) (n = 2): 0.0%

Compound: CCOc1cccc(-c2cc(C(=O)N3CCN(c4ccc(C(=O)NS(=O)(=O)c5ccc(NCCSc6ccccc6)c([N+](=O)[O-])c5)nn4)CC3)cc(C(C)(C)C)c2)c1 [B2Q015-01, 6-[4-[3-tert-Butyl-5-(3-ethoxyphenyl)benzoyl]piperazin-1-yl]-N-[3-nitro-4-(2-phenylsulfanylethylamino)phenyl]sulfonylpyridazine-3-carboxamide]
- ASMS ratio (%) n = 1 (AS-MS, mixture library, Bcl-2): 17.1%
- ASMS ratio (%) n = 2 (AS-MS, mixture library, Bcl-2): 13.2%

Compound: CCOc1cccc(-c2cc(CN3CCN(c4ccc(C(=O)NCC56CC7CC(CC(C7)C5)C6)cc4)CC3)cc(OC(C)C)c2)c1 [B1A057-01, N-(1-Adamantylmethyl)-4-[4-[[3-(3-ethoxyphenyl)-5-propan-2-yloxyphenyl]methyl]piperazin-1-yl]benzamide]
- ASMS ratio (%) n = 1 [1]: 0.0%
- ASMS ratio (%) n = 2 [1]: 0.0%

Compound: 6-[4-[[4-(3-Ethoxyphenyl)naphthalen-1-yl]methyl]piperazin-1-yl]-N-propylpyridazine-3-carboxamide [B1M045-01]
- ASMS ratio (%) n = 1 [1]: 2.5%
- ASMS ratio (%) n = 2 [1]: −2.3%

Compound: CCOc1cccc(-c2ccc(CN3CCN(c4ccc(C(=O)N(CC)CC)cc4)CC3)cc2F)c1 [B4J051-01, 4-[4-[[4-(3-Ethoxyphenyl)-3-fluorophenyl]methyl]piperazin-1-yl]-N,N-diethylbenzamide]
- ASMS ratio (%) n = 1 [2]: −9.6%
- ASMS ratio (%) n = 2 [2]: −10.2%

Compound: CCOc1cccc(-c2cc(C(=O)N3CCN(c4ccc(C(=O)NS(=O)(=O)C(C)(C)C)cc4)CC3)cc(C(F)(F)F)c2)c1 [B2L039-01, N-tert-Butylsulfonyl-4-[4-[3-(3-ethoxyphenyl)-5-(trifluoromethyl)benzoyl]piperazin-1-yl]benzamide]
- ASMS ratio (%) (n = 1): 0.0%
- ASMS ratio (%) (n = 2): 0.0%

Compound: CCOc1cccc(C#Cc2cc(C(=O)N3CCN(c4ccc(C(=O)NCC56CC7CC(CC(C7)C5)C6)cc4)CC3)cc(C(F)(F)F)c2)c1 [B1A041-01, N-(1-Adamantylmethyl)-4-[4-[3-[2-(3-ethoxyphenyl)ethynyl]-5-(trifluoromethyl)benzoyl]piperazin-1-yl]benzamide]
- ASMS ratio (%) n = 1 [1]: −2.4%
- ASMS ratio (%) n = 2 [1]: −4.0%

Compound: CCOc1cncc(-c2cc(CN3CCN(c4ccc(C(=O)N(CC)CC)cc4)CC3)cc(C(F)(F)F)c2)c1 [B4J062-01, 4-[4-[[3-(5-Ethoxypyridin-3-yl)-5-(trifluoromethyl)phenyl]methyl]piperazin-1-yl]-N,N-diethylbenzamide]
- ASMS ratio (%) n = 1 (AS-MS, mixture library, Bcl-2): 0.0%
- ASMS ratio (%) n = 2 (AS-MS, mixture library, Bcl-2): 0.0%

Compound: CCOc1cncc(C#Cc2cc(C(=O)N3CCN(c4ccc(C(=O)NCC(F)(F)F)cc4)CC3)cc(C(F)(F)F)c2)c1 [B1K042-01, 4-[4-[3-[2-(5-Ethoxypyridin-3-yl)ethynyl]-5-(trifluoromethyl)benzoyl]piperazin-1-yl]-N-(2,2,2-trifluoroethyl)benzamide]
- ASMS ratio (%) n = 1 [1]: 5.0%
- ASMS ratio (%) n = 2 [1]: −0.1%

Compound: CCOc1cccc(-c2ccccc2CCC(=O)N2CCN(c3ccc(C(=O)NS(=O)(=O)CC45CC6CC(CC(C6)C4)C5)nn3)CC2)c1 [B2A011-01, N-(1-Adamantylmethylsulfonyl)-6-[4-[3-[2-(3-ethoxyphenyl)phenyl]propanoyl]piperazin-1-yl]pyridazine-3-carboxamide]
- ASMS ratio (%) n = 1 (AS-MS, mixture library, Bcl-2): 9.0%
- ASMS ratio (%) n = 2 (AS-MS, mixture library, Bcl-2): 0.3%

Compound: CCOc1cccc(-c2ccc(CN3CCN(c4ccc(C(=O)Nc5ccc(OC)cc5)cc4)CC3)c(CC)c2)c1 [B1O049-01, 4-[4-[[4-(3-Ethoxyphenyl)-2-ethylphenyl]methyl]piperazin-1-yl]-N-(4-methoxyphenyl)benzamide]
- ASMS ratio (%) n = 1 [2]: 6.1%
- ASMS ratio (%) n = 2 [2]: 0.0%

Compound: CCOc1cncc(-c2csc(CN3CCN(c4ccc(C(=O)NCC56CC7CC(CC(C7)C5)C6)cc4)CC3)c2)c1 [B1A068-01, N-(1-Adamantylmethyl)-4-[4-[[4-(5-ethoxypyridin-3-yl)thiophen-2-yl]methyl]piperazin-1-yl]benzamide]
- ASMS ratio (%) n = 1 [1]: 12.2%
- ASMS ratio (%) n = 2 [1]: 3.3%

Compound: CCOc1cncc(-c2cc(CN3CCN(c4ccc(C(=O)NS(=O)(=O)CC56CC7CC(CC(C7)C5)C6)nn4)CC3)cc(OC(C)C)c2)c1 [B2A084-01, N-(1-Adamantylmethylsulfonyl)-6-[4-[[3-(5-ethoxypyridin-3-yl)-5-propan-2-yloxyphenyl]methyl]piperazin-1-yl]pyridazine-3-carboxamide]
- ASMS ratio (%) n = 1 (AS-MS, mixture library, Bcl-2): 13.3%
- ASMS ratio (%) n = 2 (AS-MS, mixture library, Bcl-2): 11.9%

Compound: 4-[4-[1-[4-(5-Ethoxypyridin-3-yl)-2-fluorophenyl]ethyl]piperazin-1-yl]-N-propylbenzamide [B1M006-01]
- ASMS ratio (%) n = 1 [1]: 0.0%
- ASMS ratio (%) n = 2 [1]: 0.0%

Compound: CCOc1cccc(C#Cc2cncc(C(=O)N3CCN(c4ccc(C(=O)NS(=O)(=O)C(C)(C)C)cc4)CC3)c2)c1 [B2L031-01, N-tert-Butylsulfonyl-4-[4-[5-[2-(3-ethoxyphenyl)ethynyl]pyridine-3-carbonyl]piperazin-1-yl]benzamide]
- ASMS ratio (%) (n = 1): 0.0%
- ASMS ratio (%) (n = 2): 0.0%

Source: patent US20240132431A1, “METHOD FOR ALKYLATING ACIDIC FUNCTIONAL GROUP” (Chugai Seiyaku Kabushiki Kaisha, priority 2021, published 2024)
